Reference: patent US6630316B1, “Method for measurement of lymphocyte function” (priority 1996, dated 2003)

Columns and labels:
Assay type in all cases: cell-based
[1] = test system: T lymphocytes separated by CD4, CD69, or CD3; assay: ATP response after PHA stimulation of T lymphocytes separated by CD4, CD69 or CD3; conditions: PHA (1%) for 24, 48, 72 or 96 hours; separation by CD3, CD4 or CD69
[2] = test system: CD8 positive T lymphocytes
[3] = test system: CD4 positive T lymphocytes; assay: ATP (luciferin:luciferase) response of PBMC separated using CD4 antibody and goat anti-mouse paramagnetic beads; conditions: PHA 1 ug/ml, 24 hours, CD4 separation, unstimulated 8768
[4] = test system: T lymphocytes (CD4) in whole blood; assay: T cell response to mitogens in a whole blood sample (CD4 separation, ATP luminescence); conditions: whole blood diluted 1:5, incubated overnight at 37 C; PHA at 1%, IL-2 at 1000 U/ml; control 458,451

Substance: phytohemagglutinin [PHA]
- relative light units from stimulated cells versus unstimulated cells [1]: greater than those from the unstimulated cells
- stimulation index [2]: > 10
- Relative Light Units [3]: 38903 Relative Light Units
- Relative Light Units [4]: 5,836,682 Relative Light Units
